Source: US12280043B2, “Sustained-release anesthetic compositions and methods of preparation thereof” (TLC Biopharmaceuticals, Inc., priority 2017, dated 2025)

What was measured:
[1] = Pharmacokinetic study after single SC injection; assay type: in vivo, Sprague-Dawley rats
[2] = test system: paw incision mouse model; assay: Anesthetic effect in a paw incision mouse model (von Frey mechanical threshold); assay type: in vivo, C57/BL6 mice; conditions: 0.18 mg ropivacaine per incision
Method: Wild type male C57/BL6 mice (8-week-old, Envigo) were used for evaluating the anesthetic efficacy after paw incision as described in Anesthesiology, 2003 October; 99 (4): 1023-7 and J. Neurosci Methods. 1994 July; 53 (1): 55-63. […] Baseline (T=−2 hours) mechanical (von Frey) thresholds of 32 mice were taken prior to surgery; baseline thresholds were measured on the mouse's left hind paw. All 32 mice received a plantar incision (5 mm long and […]) on their left hind paw. Two-hours post-surgery (T=0 hour), the mechanical threshold of each mouse was reassessed and the presence of mechanical allodynia in each mouse was confirmed. Thirty-two mice were randomized into 4 groups (8 mice per group). […] The 50% paw withdrawal threshold of each mouse was obtained using the up-down method at baseline time point (−2), and the designated time points (0, 1, 2, 3, 4, 5, 6, 8, and 24 hours) after SC injection treatment. […] The average 50% withdrawal threshold for each treatment group was graphed; data presented as a withdrawal threshold (g) were plotted against time (FIG. 2A). To account for variability among the baseline mechanical sensitivities of individual mice, each mouse's 50% paw withdrawal thresholds after surgery and treatment were normalized to its own baseline 50% withdrawal threshold (T=−2 hours). […]

[3] = pKa and ionisation state stated in text; assay type: physicochemical; conditions: at pH 6.0, calculation from pKa
[4] = female, Sprague-Dawley, rat, plasma, sc, 20 mg/kg

Cmax [1, 4]: 802 ± 208 ng/mL | half-life [1, 4]: 3.1 ± 1.4 h | AUC(0-t) ([1]; female, Sprague-Dawley, rat, plasma, sc, 20 mg/kg, read-out: AUC0-4): 4040 ± 632 ng·h/mL | time until which ropivacaine could be detected in the plasma ([1]; rats, single SC, same dosage 20.0 mg/kg): ≤ 24 h | theoretically uncharged ropivacaine, of available ropivacaine [3]: 0.8%
SMILES: CCCN1CCCC[C@H]1C(=O)Nc1c(C)cccc1C [Ropivacaine, ropivacaine]
analgesia compared to vehicle group ([2]; SC): some degree of analgesia | withdrawal threshold at the first time point ([2]; T=1 hour after SC injection, increased from 0.04 g): 0.22 g
